{"source": "ChEMBL document CHEMBL2321873", "about": "“1-(4-Phenylpiperazin-1-yl)-2-(1H-pyrazol-1-yl)ethanones as novel CCR1 antagonists” (Bioorg Med Chem Lett, 2013)", "key": {"[1]": {"target": "T1, C-C chemokine receptor type 10 (Homo sapiens) (UniProt P46092)", "T1 sequence (whole entry)": "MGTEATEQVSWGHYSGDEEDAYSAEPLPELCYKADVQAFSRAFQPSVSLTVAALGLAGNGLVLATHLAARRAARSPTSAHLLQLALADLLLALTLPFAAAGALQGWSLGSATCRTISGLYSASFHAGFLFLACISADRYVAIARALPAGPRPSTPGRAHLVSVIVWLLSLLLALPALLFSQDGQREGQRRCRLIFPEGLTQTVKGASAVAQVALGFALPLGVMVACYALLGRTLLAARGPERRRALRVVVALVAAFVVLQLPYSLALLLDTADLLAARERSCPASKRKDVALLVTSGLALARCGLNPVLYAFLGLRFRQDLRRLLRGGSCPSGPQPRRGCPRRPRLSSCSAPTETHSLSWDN", "assay": "Antagonist activity at CCR10 (unknown origin) assessed as inhibition of chemotaxis at 10 uM"}, "[2]": {"target": "Atypical chemokine receptor 3 (Homo sapiens) (UniProt P25106)", "sequence (P25106 whole entry)": "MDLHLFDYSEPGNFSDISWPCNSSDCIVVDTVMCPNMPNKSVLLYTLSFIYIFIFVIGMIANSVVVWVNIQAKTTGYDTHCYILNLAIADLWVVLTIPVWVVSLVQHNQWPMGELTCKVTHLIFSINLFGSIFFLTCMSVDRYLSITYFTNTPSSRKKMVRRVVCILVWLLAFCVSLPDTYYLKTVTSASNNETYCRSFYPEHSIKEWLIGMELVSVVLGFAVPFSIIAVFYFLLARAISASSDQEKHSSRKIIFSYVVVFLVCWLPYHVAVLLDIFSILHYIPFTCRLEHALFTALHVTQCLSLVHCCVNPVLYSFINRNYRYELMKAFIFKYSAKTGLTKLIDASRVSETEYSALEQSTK", "assay": "Antagonist activity at CXCR7 (unknown origin) assessed as inhibition of calcium flux at 10 uM", "type": "functional"}}, "note": "Calls of active or inactive are those of the source. The rule behind the calls is not given here."}
{"compound": "COc1cc(N2CCN(C(=O)Cn3nc(C(F)(F)F)c(Cl)c3C)CC2)ccc1Cl", "values": [{"measurement": "inhibition", "setting": "[1]", "result": "inactive"}, {"measurement": "inhibition", "setting": "[2]", "result": "inactive"}]}
